Measured values published in patent US20240041042A1, “1-(PYRIDYL)-5-AZINYLPYRAZOLE DERIVATIVES, AND THEIR USE FOR CONTROL OF UNDESIRED PLANT GROWTH” (Bayer Aktiengesellschaft, priority 2020, published 2024).

How the values were obtained:
Type in all cases: in vivo
[1] = test system: Alopecurus myosuroides (ALOMY); assay: Pre-emergence herbicidal action against ALOMY; conditions: scored visually after about 3 weeks, 100% = plants have died
Source text: (§1) Seeds of monocotyledonous and dicotyledonous weed plants and crop plants are placed in plastic or organic planting pots and covered with soil. The compounds of the invention, formulated in the form of wettable powders (WP) or as emulsion concentrates (EC), are then applied to the surface of the covering soil as aqueous suspension or emulsion with addition of 0.5% additive at a water application rate equivalent to 600 l/ha. After the treatment, the pots are placed in a greenhouse and kept under good growth conditions for the trial plants. After about 3 weeks, the effect of the preparations is scored visually in comparison with untreated controls as percentages. For example, 100% activity=the plants have died, 0% activity=like control plants.
(§2) Tables A1 to A13 below show the effects of selected compounds of the general formula (I) on various harmful plants and at an application rate corresponding to 320 g/ha or lower, which were obtained by the experimental procedure mentioned above. The appendices “a”, “b” and “c” give differentiation by dosage used with otherwise the same harmful plants tested.

[2] = test system: Amaranthus retroflexus (AMARE); assay: Pre-emergence herbicidal action against AMARE; conditions: visual scoring after about 3 weeks vs untreated controls
Source text: as §1, §2

[3] = test system: Echinochloa crus-galli (ECHCG); assay: Pre-emergence herbicidal action against ECHCG
Source text: as §1, §2

Lolium rigidum (LOLRI) [4] = assay: Pre-emergence herbicidal action against LOLRI; conditions: dosage 320 g/ha
Source text: as §1, §2

[5] = test system: Matricaria inodora (MATIN); assay: Pre-emergence herbicidal action against MATIN
Source text: as §1, §2

[6] = test system: Pharbitis purpurea (PHBPU); assay: Pre-emergence herbicidal action against PHBPU
Source text: as §1, §2

[7] = test system: Polygonum convolvulus (POLCO); assay: Pre-emergence herbicidal action against POLCO
Source text: as §1, §2

Setaria viridis (SETVI) [8] = assay: Pre-emergence herbicidal action against SETVI
Source text: as §1, §2

[9] = test system: Verconica persica (VERPE); assay: Pre-emergence herbicidal action against VERPE; conditions: dosage 320 g/ha
Source text: as §1, §2

Viola tricolor (VIOTR) [10] = assay: Pre-emergence herbicidal action against VIOTR
Source text: as §1, §2

[11] = test system: Abutilon theophrasti (ABUTH); assay: Post-emergence herbicidal action against ABUTH; conditions: 320 g/ha, visual rating about 3 weeks after treatment vs untreated controls (100% = plants have died, 0% = like control plants)
Description: (§3) Seeds of monocotyledonous and dicotyledonous weeds and crop plants are placed in sandy loam in plastic or organic planting pots, covered with soil and cultivated in a greenhouse under controlled growth conditions. 2 to 3 weeks after sowing, the test plants are treated at the one-leaf stage. The compounds of the invention, formulated in the form of wettable powders (WP) or as emulsion concentrates (EC), are then sprayed onto the green parts of the plants as aqueous suspension or emulsion with addition of 0.5% additive at a water application rate of 600 l/ha (converted). After the test plants have been kept in the greenhouse under optimum growth conditions for about 3 weeks, the activity of the preparations is rated visually in comparison to untreated controls. For example, 100% activity=the plants have died, 0% activity=like control plants.
(§4) Tables B1 to B13 below show the effects of selected compounds of the general formula (I) according to Table 1 on various harmful plants and at an application rate corresponding to 320 g/ha or lower, which were obtained by the experimental procedure mentioned above. The appendices “a”, “b” and “c” give differentiation by dosage used with otherwise the same harmful plants tested.

[12] = test system: Alopecurus myosuroides (ALOMY); assay: Post-emergence herbicidal action against ALOMY; conditions: 320 g/ha, visual rating about 3 weeks after treatment vs untreated controls (100% = plants have died, 0% = like control plants)
Description: as §3, §4

[13] = test system: Amaranthus retroflexus (AMARE); assay: Post-emergence herbicidal action against AMARE
Description: as §3, §4

[14] = test system: Echinochloa crus-galli (ECHCG); assay: Post-emergence herbicidal action against ECHCG
Description: as §3, §4

Lolium rigidum (LOLRI) [15] = assay: Post-emergence herbicidal action against LOLRI; conditions: dosage 320 g/ha
Description: as §3, §4

[16] = test system: Matricaria inodora (MATIN); assay: Post-emergence herbicidal action against MATIN
Description: as §3, §4

[17] = test system: Pharbitis purpurea (PHBPU); assay: Post-emergence herbicidal action against PHBPU
Description: as §3, §4

Setaria viridis (SETVI) [18] = assay: Post-emergence herbicidal action against SETVI
Description: as §3, §4

[19] = test system: Verconica persica (VERPE); assay: Post-emergence herbicidal action against VERPE
Description: as §3, §4

Oryza sativa (ORYSA) = conditions: crop plant compatibility, 80 g/ha, effect in comparison to untreated controls
Description: as §3
(§5) The observed effects on selected crop plants are reported here in comparison to the untreated controls (values in %). The appendices “a”, “b” and “c” give differentiation by dosage used with otherwise the same crop plants tested.

Avena fatua (AVEFA) = assay: Post-emergence herbicidal action against AVEFA; conditions: visual rating about 3 weeks after treatment
Description: as §3, §4

[20] = test system: Polygonum convolvulus (POLCO); assay: Post-emergence herbicidal action against POLCO; conditions: dosage 320 g/ha
Description: as §3, §4

Viola tricolor (VIOTR) [21] = assay: Post-emergence herbicidal action against VIOTR; conditions: 320 g/ha
Description: as §3, §4

Zea mays (ZEAMX) = conditions: crop plant compatibility, 80 g/ha, effect vs untreated controls
Description: as §3, §5

[22] = 320 g/ha, visual rating about 3 weeks after treatment

Post-emergence action against ORYSA in % (Oryza sativa (ORYSA)) [%] | Structure (SMILES) | Pre-emergence action against ALOMY ([1]; 320 g/ha) [%] | Pre-emergence action against AMARE in % ([2]; 320 g/ha) [%] | Pre-emergence action against ECHCG in % ([3]; dosage 80 g/ha) [%] | Pre-emergence action against ECHCG in % ([3]; dosage 320 g/ha) [%] | Pre-emergence action against LOLRI in % (Lolium rigidum (LOLRI) [4]) [%] | Pre-emergence action against MATIN in % ([5]; dosage 320 g/ha) [%] | Pre-emergence action against PHBPU in % ([6]; dosage 320 g/ha) [%] | Pre-emergence action against SETVI in % (Setaria viridis (SETVI) [8]; dosage 320 g/ha) [%] | Pre-emergence action against VIOTR in % (Viola tricolor (VIOTR) [10]; 320 g/ha, Viola tricolor) [%] | Pre-emergence action against VIOTR in % (Viola tricolor (VIOTR) [10]; dosage 80 g/ha) [%] | Post-emergence action against ALOMY in % [12] [%] | Post-emergence action against AMARE in % [13, 22] [%] | Post-emergence action against ECHCG in % ([14]; dosage 80 g/ha) [%] | Post-emergence action against ECHCG in % ([14]; dosage 320 g/ha) [%] | Post-emergence action against MATIN in % ([16]; dosage 320 g/ha) [%] | Post-emergence action against PHBPU in % ([17]; dosage 80 g/ha) [%] | Post-emergence action against PHBPU in % ([17]; dosage 320 g/ha) [%] | Post-emergence action against SETVI in % (Setaria viridis (SETVI) [18]; dosage 320 g/ha) [%] | further results
10 | COC(=O)COc1nn(-c2nc(F)ccc2F)c(-c2cncc(F)c2)c1Br [Example I-210] | 90 | 100 | 90 | 100 | 80 | 90 | 90 | 100 | 100 | 90 | 90 | 80 | 80 | 80 | 80 | 90 | 100 | 80 | Pre-emergence action against ALOMY ([1]; 80 g/ha): 80%; Pre-emergence action against AMARE in % ([2]; 80 g/ha): 80%; Pre-emergence action against MATIN in % ([5]; dosage 80 g/ha): 90%; Pre-emergence action against PHBPU in % ([6]; dosage 80 g/ha): 90%; Pre-emergence action against POLCO in % ([7]; dosage 80 g/ha): 90%; Pre-emergence action against POLCO in % ([7]; dosage 320 g/ha): 100%; Pre-emergence action against SETVI in % (Setaria viridis (SETVI) [8]; dosage 80 g/ha): 90%; Pre-emergence action against VERPE in % [9]: 100%; Post-emergence action against ABUTH in % [11]: 80%; Post-emergence action against LOLRI in % (Lolium rigidum (LOLRI) [15]): 80%; Post-emergence action against MATIN in % ([16]; dosage 80 g/ha): 80%; Post-emergence action against SETVI in % (Setaria viridis (SETVI) [18]; dosage 80 g/ha): 80%; Post-emergence action against VERPE in % ([19]; 320 g/ha, VERPE): 90%; Post-emergence action against VERPE in % ([19]; dosage 80 g/ha): 90%
0 | O=C(O)CSc1nn(-c2ccccn2)c(-c2cncc(F)c2)c1C1CC1 [Example I-153] | 90 | 100 | 80 | 100 | 80 | 80 | 80 | 90 | 100 | 90 | 80 | 90 | 80 | 90 | 80 | 80 | 90 | 80 | Post-emergence action against AMARE in % ([13]; 80 g/ha, visual rating about 3 weeks after treatment vs untreated controls (100% = plants have died, 0% = like control plants)): 90%; Post-emergence action against AVEFA in % (Avena fatua (AVEFA); 80 g/ha): 80%; Post-emergence action against AVEFA in % (Avena fatua (AVEFA); 320 g/ha): 90%; Post-emergence action against POLCO in % [20]: 80%; Post-emergence action against VIOTR in % (Viola tricolor (VIOTR) [21]): 80%; Post-emergence action against ZEAMX in % (Zea mays (ZEAMX)): 10%
